Where two headings read alike, the source gives them in different places.
What was measured:
plasmin = plasmin (Homo sapiens, UniProt P00747); assay: Plasmin assay (specificity determination); format: biochemical; details: maximal concentration 25,000 nM, mean of at least two independent experiments
Description: Plasmin catalytic activity was determined using the chromogenic substrate, S-2251 [D-valyl-L-leucyl-L-lysine-p-nitroanilide], which was obtained from Kabi Diagnostica.

[1] = system: rat plasma clotting (APTT); assay: Ex vivo anticoagulant effect, APTT in citrated rat plasma
From the text: (§1) The control clotting times (0 inhibitor) for rat and human plasma were 19 seconds and 29 seconds, respectively. The concentration of BzlSO2 -norVal(cyclo)-Gly-Ala(3-guanPip)al which caused a doubling of the control clotting time in rat and human plasma was 12.7 micromolar and 9.1 micromolar, respectively. The data is the mean of two independent determinations.
(§2) Fresh frozen citrated pooled normal human plasma was obtained from George King Biomedical, Overland Park, Kans. Pooled normal rat plasma was prepared from citrated whole blood collected from anesthetized rats using standard procedures. The plasma was flash frozen and stored at -80° C. until use. Measurements APTT was made using the Coag-A-Mate RA4 automated coagulometer (General Diagnostics, Organon Technica, Oklahoma City, Okla.) using the Automated APTT reagent (Organon Technica, Durham, N.C.) as the initiator of clotting according to the manufacturers instructions. The assay was conducted by making a series of dilution's of Isomer B in rapidly thawed plasma followed by adding 200 microliters to the wells of the assay carousel.

[2] = system: human plasma clotting (APTT); assay: Ex vivo anticoagulant effect, APTT in citrated human plasma
From the text: as §1, §2

[3] = system: FeCl3-induced occlusive thrombus in rat carotid artery; assay: Rat model of FeCl3-induced platelet-dependent arterial thrombosis; format: in vivo; details: for Incidence of Occlusion: single intravenous bolus 5 minutes before FeCl3, n = 6, 60 minutes, saline 6/6; for ED50: Rattus norvegicus, read-out: ED50 for thrombus prevention in the FeCl3 model of arterial thrombosis
From the text: Kurz, K. D., Main, B. W., and Sandusky, G. E., Thromb. […] In this model a platelet-rich, occlusive thrombus is formed in a segment of the rat carotid artery treated locally with a fresh solution of FeCl3 absorbed to a piece of filter paper. The FeCl3 is thought to diffuse into the treated segment of artery and causes de-endothelialization of the affected vessel surface. […] The effect of a test compound on the incidence of occlusive thrombus formation following the application of the FeCl3 is monitored by ultrasonic flowtometry and is used as the primary end point. The use of flowtometry to measure carotid artery blood flow, is a modification of the original procedure in which thermal detection of clot formation was employed. Kurz, K. D., Main, B. W., and Sandusky, G. E., Thromb.
The animals were prepared, anesthetized with Nembutal followed by the insertion of catheters for blood pressure monitoring, drug and anesthesia delivery. The left carotid artery was isolated by making a midline cervical incision followed by blunt dissection and spreading techniques to separate a 2 cm segment of the vessel from the carotid sheath. A silk suture is inserted under the proximal and distal ends of the isolated vessel to provide clearance for the placement of a ultrasonic flow probe (Transonic) around the proximal end of the vessel. The probe is then secured with a stationary arm.
Following surgery the animals were randomized in either a control (saline) or treatment group with test compound (Isomer B) with at least 6 animals per group per dose. The test compound was administered as a single intravenous bolus at the doses outlined in Table 3 after placement of the flow probe and 5 minutes prior to the thrombogenic stimulus. […] Blood pressure, blood flow, heart rate, and respiration were monitored for 60 minutes.
The incidence of occlusion (defined as the attainment of zero blood flow) was recorded as the primary end point and as a measure of the antithrombotic efficacy of Isomer B.

human alpha-thrombin [4] = target: T1, human alpha-thrombin (Homo sapiens, UniProt P00734); details: Table 4, human alpha-thrombin
Description: Enzyme activity was determined using the chromogenic substrate Pefachrome t-PA (CH3 SO2 -D-hexahydrotyrosine-glycyl-L-Arginine-p-nitroanilide), obtained from Pentapharm Ltd. The substrate was reconstituted in deionized water prior to use. Purified human alpha-thrombin (3000U/mg specific activity) was obtained from Enzyme Research Laboratories, Inc. The buffer used for all assays was HBSA (10 mM HEPES, pH 7.5, 150 mM sodium chloride, 0.1%, bovine serum albumin).
Velocities of chromogenic substrate hydrolysis which occurred over 40 min was measured by the change in absorbance at 405 nm using a Thermo Max® Kinetic Microplate Reader. […] The extent of substrate hydrolysis was less than 5% over the course of this assay.

human alpha-thrombin [5] = target: T1, human alpha-thrombin; assay: biochemical
Description: The buffer used for all assays was HBSA (10 mM HEPES, pH 7.5, 150 mM sodium chloride, 0.1% bovine serum albumin). […] Following a 30-minute incubation at ambient temperature, 50 microliters of the substrate at the concentrations specified below, was added to the wells yielding a final total volume of 200 microliters. The initial velocity of chromogenic substrate hydrolysis was measured by the change in absorbance at 405nm using a Thermo Max® Kinetic Microplate Reader over a 5 minute period in which less than 5% of the added substrate was utilized.
Thrombin catalytic activity was determined using the chromogenic substrate Pefachrome t-PA (CH3 SO2 -D-hexahydrotyrosine-glycyl-L-arginine-p-nitroanilide, obtained from Pentapharm Ltd.). The substrate was made up in deionized water followed by dilution in HBSA prior to the assay in which the final concentration was 300 micromolar (about 5-times Km). Purified human alpha-thrombin was obtained from Enzyme Research Laboratories, Inc. The enzyme was diluted into HBSA prior to the assay in which the final concentration was 0.25 nM.

thrombin = details: literature; cited from earlier work
[6] = literature; cited from earlier work
[7] = literature; cited from earlier work; remark: listed apart in the source

Chain of plasmin (P00747 581-810 limits assumed): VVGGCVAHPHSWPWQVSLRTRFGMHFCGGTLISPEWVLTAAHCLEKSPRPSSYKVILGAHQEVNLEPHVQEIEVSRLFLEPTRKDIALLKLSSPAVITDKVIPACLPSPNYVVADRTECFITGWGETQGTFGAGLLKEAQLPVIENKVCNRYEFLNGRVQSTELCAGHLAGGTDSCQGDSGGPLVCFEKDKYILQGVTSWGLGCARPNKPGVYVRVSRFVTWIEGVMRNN
Chain of plasmin (P00747 97-580 limits assumed): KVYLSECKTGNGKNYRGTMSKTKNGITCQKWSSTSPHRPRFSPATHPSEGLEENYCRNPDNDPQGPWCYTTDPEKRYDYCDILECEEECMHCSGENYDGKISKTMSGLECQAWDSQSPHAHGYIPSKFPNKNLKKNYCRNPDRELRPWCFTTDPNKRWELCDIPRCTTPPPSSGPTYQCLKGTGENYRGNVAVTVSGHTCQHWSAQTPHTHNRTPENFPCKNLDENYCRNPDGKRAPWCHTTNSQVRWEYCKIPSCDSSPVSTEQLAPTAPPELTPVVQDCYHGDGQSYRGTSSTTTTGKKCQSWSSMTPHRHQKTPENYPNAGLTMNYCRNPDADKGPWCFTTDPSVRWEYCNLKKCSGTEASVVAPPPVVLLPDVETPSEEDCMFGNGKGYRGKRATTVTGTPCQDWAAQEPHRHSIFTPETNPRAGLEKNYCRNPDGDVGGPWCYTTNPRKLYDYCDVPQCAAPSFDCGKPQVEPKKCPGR

SMILES: N=C(N)N1CCCC(C[C@@H](C=O)NC(=O)CN2CCC[C@H](NS(=O)(=O)Cc3ccccc3)C2=O)C1 (single isomer, unassigned) [Isomer B]
- IC50 (plasmin): > 25000 nM
- prolongation of the APTT [1]: prolonged the APTT in a dose dependent manner
- concentration which caused a doubling of the control clotting time (APTT) ([2]; citrated human plasma, control clotting time 29 seconds, mean of two independent determinations): 9.1 µM
- prolongation of the APTT ([2]; human plasma): prolonged the APTT in a dose dependent manner
- Incidence of Occlusion ([3]; 0.3 mg/kg): 6/6
- Incidence of Occlusion ([3]; 1.0 mg/kg): 4/6
- Incidence of Occlusion ([3]; 3.0 mg/kg, p ≤ 0.05 from saline control by Fishers test): 0/6
- ED50 [3]: 1.4 mg/kg
- Ki (human alpha-thrombin [4]): 0.318 nM
- IC50 (human alpha-thrombin [5]): 0.9 nM

SMILES: N=C(N)c1ccc(CC(=O)C(=O)O)cc1 [APPA, 4-amidinophenylpyruvic acid]
- selectivity of thrombin inhibition (thrombin): non-selective, inhibiting trypsin, plasmin and kallikrein
- toxicity [6]: low toxicity
- pharmacokinetics [7]: favourable pharmacokinetics

SMILES: CC1CNc2c(cccc2S(=O)(=O)N[C@@H](CCCNC(=N)N)C(=O)N2CC[C@@H](C)C[C@@H]2C(=O)O)C1 (stereo partly drawn) [Argatroban, 2R,4R-4-methyl-1-[N-2-(3-methyl-1,2,3,4-tetrahydro-8-quinolinesulfonyl)-L-argininal]-2-piperdinecarboxylic acid, reference compound]
- ED50 ([3]; dose that prevents complete thrombotic occlusion in 50% of animals tested): 3.8 mg/kg

SMILES: CS(=O)(=O)O.CS(=O)(=O)O.N=C(N)Nc1ccc(C(=O)Oc2ccc3cc(C(=N)N)ccc3c2)cc1 [FUT 175, 6-amidino-2-naphthyl-4-guanidinobenzoate dimethanesulfonate]
- selectivity of thrombin inhibition (thrombin): non-selective

— patent US5714499A, “3-amino-2-oxo-1-piperidineacetic derivatives containing an arginine mimic as enzyme inhibitors” (Corvas International, Inc., priority 1994, dated 1998)
